Measurements reported in patent US7214697B2, “2-Oxo-benzimidazolyl substituted ethanolamine derivatives and their use as β3 agonists” (Eli Lilly and Company, priority 2002, dated 2007).

Molecular target: T1, human β3 adrenergic receptor (Homo sapiens, UniProt P13945)
T1 construct: expressed in transfected cells; host or cells: DXB-11 Chinese hamster ovary (CHO) cell line, stably transfected (phd expression vector)
Experiment: whole cell receptor coupled c-AMP assay (Emax relative to isoproterenol)
Format: cell-based
Settings: transfected CHO cells, c-AMP SPA; compound's maximal response divided by isoproterenol maximal response times 100; average of at least 3 runs; SEM in brackets; read-out: Emax (SEM), % intrinsic activity relative to isoproterenol
From the text: The Emax values represent the average of at least 3 runs except as otherwise indicated.
The genes encoding the human β1-adrenergic receptor (Frielle et al., Proc. Natl. Acad. Sci., 84:7920–7924, 1987), the human β2-adrenergic receptor (Kobika et al., Proc. Natl. Acad. Sci., 84:46–50, 1987, Emorine et al., Proc. Natl. Acad. Sci., 84:6995–6999, 1987) and the human β3 adrenergic receptor (GraTineman et al., Molecular Pharmacology, 44(2):264–70, 1993) are individually subcloned into a phd expression vector (Grinnell el al., Bio/Technology, 5:1189–1192, 1987) and transfected into the DXB-11 Chinese hamster ovary (CHO) cell line by calcium phosphate precipitation methodology. The stably transfected cells are grown to 95% confluency in 95% Dulbecco's modified Eagles Medium (DMEM), 5% fetal bovine serum and 0.01% proline. Media is removed and the cells are washed with phosphate buffered (pH 7.4) saline (without magnesium and calcium). Cells are then lifted using an enzyme free cell dissociation solution (Specialty Media, Lavallette, N.J.) and pelleted by centrifugation.
Cells from each of the above cell lines are resuspended and added (20,000/well) to a 96-well plate. Cells are incubated at 37° C. with representative compounds of the invention for 20 minutes in buffer (Hank's balanced salt solution, 10 mM HEPES, 0.1% BSA, 1 mM L-ascorbic acid, 0.2% dimethyl sulfoxide, 1 mM 3-isobutyl-1-methylxanthine, pH 7.4). After halting the incubation with quench buffer (50 mM Na Acetate, 0.25% Triton X-100, pH 5.8), the c-AMP level is quantified by scintillation proximity assay (SPA) using a modification of the commercially available c-AMP kit (Amersham, Arlington Heights, Ill.) with rabbit anti-cAMP antibody (ICN Bioniedicals, Aurora, Ohio) for the kit.
Sigmoidal dose response curves, from the whole cell receptor coupled c-AMP assay are fit to a four parameter logistic equation using non linear regression: y=(a-d)/(1+(Dose/c)^b)+d where a and d are responses at zero and maximal dose, b is the slope factor and c is the EC50 as previously described (DeLean et al., Am. J. Physiol., 235, E97–E102, 1978). EC50 is assessed as the concentration producing 50% of the maximum response to each agonist.
Isoproterenol is accepted in the art as a non-selective β3 agonist and is widely used as a comparator in evaluating the activity of compounds. See Trends in Pharm. Sci., 15:3, 1994. The % intrinsic activity (Emax) of representative compounds of the invention is assessed relative to isoproterenol by the compound's maximal response divided by the isoproterenol maximal response times 100.

T1 sequence (P13945 whole entry): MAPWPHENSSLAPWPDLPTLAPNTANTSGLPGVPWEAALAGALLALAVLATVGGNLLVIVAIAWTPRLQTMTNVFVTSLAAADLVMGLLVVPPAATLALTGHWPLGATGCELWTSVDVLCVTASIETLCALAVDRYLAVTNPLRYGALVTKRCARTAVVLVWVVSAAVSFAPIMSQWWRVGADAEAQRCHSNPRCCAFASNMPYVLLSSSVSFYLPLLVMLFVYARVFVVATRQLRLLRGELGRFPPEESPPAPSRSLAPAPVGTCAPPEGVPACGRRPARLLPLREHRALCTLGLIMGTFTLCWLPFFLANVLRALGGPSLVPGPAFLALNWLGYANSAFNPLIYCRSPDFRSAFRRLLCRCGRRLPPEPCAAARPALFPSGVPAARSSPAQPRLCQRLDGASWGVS

Going from CC(C)(C)Cn1c(=O)[nH]c2cccc(OC[C@@H](O)CNC(C)(C)Cc3ccc(Oc4ccc(C(N)=O)cn4)cc3)c21 [Example 12] to CC(C)(Cc1ccc(Oc2ccc(C(N)=O)cn2)cc1)NC[C@H](O)COc1cccc2[nH]c(=O)n(CC3CC3)c12 [Example 14], the Emax rises from 65.5% to 67.9%.

First: CC(C)(C)Cn1c(=O)[nH]c2cccc(OC[C@@H](O)CNC(C)(C)Cc3ccc(Oc4ncccc4C(N)=O)cc3)c21 [Example 13]
Second: CC(C)(Cc1ccc(Oc2ncccc2C(N)=O)cc1)NC[C@H](O)COc1cccc2[nH]c(=O)n(CC3CC3)c12 [Example 15]
The Emax of the first is lower: 66.4% for the first, 80.1% for the second.

Going from CC(C)(Cc1ccc(Oc2ccc(C(N)=O)cc2Cl)cc1)NC[C@H](O)COc1cccc2[nH]c(=O)n(CC3CC3)c12 [Example 16] to CC(C)(Cc1ccc(Oc2ccc(C(N)=O)cn2)cc1)NC[C@H](O)COc1cccc2[nH]c(=O)n(CC3CCC3)c12 [Example 17], the Emax falls from 76% to 58.2%.

First: CC(C)(Cc1ccc(Oc2ncccc2C(N)=O)cc1)NC[C@H](O)COc1cccc2[nH]c(=O)n(CC3CCC3)c12 [Example 18]
Second: CC(C)(Cc1ccc(Oc2ncccc2C(N)=O)cc1)NC[C@H](O)COc1cccc2[nH]c(=O)n(CC3CCCC3)c12 [Example 20]
The Emax of the first is lower: 59.8% for the first, 66.8% for the second.

With CC(C)(Cc1ccc(Oc2ccc(C(N)=O)cn2)cc1)NC[C@H](O)COc1cccc2[nH]c(=O)n(CC3CCCC3)c12 [Example 19] the Emax was 63.7%.

Tested on: rat atria
Experiment: In Vitro Rat Atrial Tachycardia
Settings: isolated rat atria, cumulative addition until no further increase in atrial rate or 10^-4; average of at least 3 runs
Description: Male rats (250–350 g) (Harlan Sprague Dawley, Indianapolis, Ind., USA) are killed by cervical dislocation. Hearts are removed and the left and right atria are dissected and mounted with thread in tissue baths containing 10 mls of modified Krebs' solution. Initial resting tension is 1.5–2.0 g at the outset of the experiment (Naunyn-Schmied Arch. Pharmacol., 320:145, 1982). Tissues are allowed to equilibrate approximately 30 minutes with vigorous oxygenation before exposure to a compound of the invention.
To evaluate the ability of test compounds to increase heart rate, representative compounds of the present invention are added cumulatively once the atrial rate reached a steady state from the previous addition. Compound addition is continued until no further increase in atrial rate occurred or until a concentration of 10^−4 is reached. The increase in beats per minute (bpm) is measured for each concentration of test compound by means of a BioPac System (Br. J. of Pharmacol., 126:1018–1024, 1999).
The “% increase” values represent the average of at least 3 runs.

CC(C)(Cc1ccc(Cc2ccc(C(N)=O)cn2)cc1)NC[C@H](O)COc1cccc2[nH]c(=O)n(CC3CCC3)c12 [Cyclobutylmethyl] and CC(C)(Cc1ccc(Cc2ccc(C(N)=O)cn2)cc1)NC[C@H](O)COc1cccc2[nH]c(=O)n(CC3CC3)c12 [Cyclopropylmethyl] are within error of each other in “% Increase in Heart Rate” value: 6.5 ± 2.2% for the first, 8.9 ± 1.2% for the second.

Going from CC(C)(Cc1ccc(Cc2ccc(C(N)=O)cn2)cc1)NC[C@H](O)COc1cccc2[nH]c(=O)n(CC3CCCC3)c12 [Cyclopentylmethyl] to CCn1c(=O)[nH]c2cccc(OC[C@@H](O)CNC(C)(C)Cc3ccc(Cc4ccc(C(N)=O)cn4)cc3)c21 [Ethyl, reference compound], the “% Increase in Heart Rate” value rises from 9.9 ± 0.3% to 19.9 ± 0.4%.

CC(C)(Cc1ccc(Cc2ccc(C(N)=O)cn2)cc1)NC[C@H](O)COc1cccc2[nH]c(=O)[nH]c12 [Hydrogen, reference compound] and Cn1c(=O)[nH]c2cccc(OC[C@@H](O)CNC(C)(C)Cc3ccc(Cc4ccc(C(N)=O)cn4)cc3)c21 [Methyl, reference compound] are within error of each other in “% Increase in Heart Rate” value: 17.7 ± 3.7% for the first, 20.8 ± 1.8% for the second.

Tested on: not given
Experiment: not given
Settings: not given

For CC(C)(Cc1ccc(Oc2ccc(C(N)=O)cc2Cl)cc1)NC[C@H](O)COc1cccc2[nH]c(=O)n(CC3CCCC3)c12.Cl [Example 21], the melting point was 159 to 164 °C (dec.).
